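1) Cells in 96-well plates. 2) Compound, 48 h, 5 concentrations. 3) Linear interpolation between surrounding doses. 4) Unreached endpoint = highest concentration. GI50 = concentration required for 50% inhibition of growth.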 Activity calls are given as the source filed them. No stated cut-off is given here; in the data, active = GI50 up to about 1.1 µM and inactive = higher.
Experiments:
Assay in all cases: NCI-60 cell line screen, 48 h
SNB-19 = test system: SNB-19
K562 = test system: K562
DU-145 = test system: DU-145
RXF 393 = test system: RXF 393
TK-10 = test system: TK-10
COLO 205 = test system: COLO 205
SF-268 = test system: SF-268
UACC-257 = test system: UACC-257
SW-620 = test system: SW-620
CAKI-1 = test system: CAKI-1
HL-60 = test system: HL-60
SNB-75 = test system: SNB-75
EKVX = test system: EKVX
U-251 = test system: U-251
HCT-116 = test system: HCT-116
A498 = test system: A498
RPMI-8226 = test system: RPMI-8226
SR = test system: SR
MDA-N = test system: MDA-N
MDA-MB-435 = test system: MDA-MB-435
T47D = test system: T47D
LOX IMVI = test system: LOX IMVI
OVCAR-8 = test system: OVCAR-8
A549 = test system: A549
UACC-62 = test system: UACC-62
NCI-H226 = test system: NCI-H226
M14 = test system: M14
HCC 2998 = test system: HCC 2998
MOLT-4 = test system: MOLT-4
NCI-H460 = test system: NCI-H460
Hs-578T = test system: Hs-578T
CCRF-CEM = test system: CCRF-CEM
OVCAR-5 = test system: OVCAR-5
MDA-MB-231 = test system: MDA-MB-231
BT-549 = test system: BT-549
SK-OV-3 = test system: SK-OV-3
HOP-62 = test system: HOP-62
OVCAR-4 = test system: OVCAR-4
IGROV-1 = test system: IGROV-1
HCT-15 = test system: HCT-15
HT-29 = test system: HT-29
SN12C = test system: SN12C
ACHN = test system: ACHN
786-0 = test system: 786-0
NCI/ADR-RES = test system: NCI/ADR-RES
SK-MEL-28 = test system: SK-MEL-28
NCI-H23 = test system: NCI-H23
KM12 = test system: KM12
OVCAR-3 = test system: OVCAR-3
SF-295 = test system: SF-295
UO-31 = test system: UO-31
SK-MEL-2 = test system: SK-MEL-2
SK-MEL-5 = test system: SK-MEL-5
MCF7 = test system: MCF7
HOP-92 = test system: HOP-92
PC-3 = test system: PC-3
NCI-H522 = test system: NCI-H522
Malme-3M = test system: Malme-3M
SF-539 = test system: SF-539

Cn1c(=O)c2c(nc3n2CCCC(=O)N3CCCCl)n(C)c1=O
GI50 (SNB-19): > 100 µM (inactive)
GI50 (K562): > 100 µM (inactive)
GI50 (DU-145): > 100 µM (inactive)
GI50 (RXF 393): > 100 µM (inactive)
GI50 (TK-10): > 100 µM (inactive)
GI50 (COLO 205): > 100 µM (inactive)
GI50 (SF-268): > 100 µM (inactive)
GI50 (UACC-257): > 100 µM (inactive)
GI50 (SW-620): > 100 µM (inactive)
GI50 (CAKI-1): > 100 µM (inactive)
GI50 (HL-60): > 100 µM (inactive)
GI50 (SNB-75): > 100 µM (inactive)
GI50 (EKVX): > 100 µM (inactive)
GI50 (U-251): > 100 µM (inactive)
GI50 (HCT-116): > 100 µM (inactive)
GI50 (A498): > 100 µM (inactive)
GI50 (RPMI-8226): > 100 µM (inactive)
GI50 (SR): > 100 µM (inactive)
GI50 (MDA-N): > 100 µM (inactive)
GI50 (MDA-MB-435): > 100 µM (inactive)
GI50 (T47D): > 100 µM (inactive)
GI50 (LOX IMVI): > 100 µM (inactive)
GI50 (OVCAR-8): > 100 µM (inactive)
GI50 (A549): > 100 µM (inactive)
GI50 (UACC-62): > 100 µM (inactive)
GI50 (NCI-H226): > 100 µM (inactive)
GI50 (M14): > 100 µM (inactive)
GI50 (HCC 2998): > 100 µM (inactive)
GI50 (MOLT-4): > 100 µM (inactive)
GI50 (NCI-H460): > 100 µM (inactive)
GI50 (Hs-578T): > 100 µM (inactive)
GI50 (CCRF-CEM): > 100 µM (inactive)
GI50 (OVCAR-5): > 100 µM (inactive)
GI50 (MDA-MB-231): > 100 µM (inactive)
GI50 (BT-549): > 100 µM (inactive)
GI50 (SK-OV-3): > 100 µM (inactive)
GI50 (HOP-62): > 100 µM (inactive)
GI50 (OVCAR-4): > 100 µM (inactive)
GI50 (IGROV-1): > 100 µM (inactive)
GI50 (HCT-15): > 100 µM
GI50 (HT-29): > 100 µM (inactive)
GI50 (SN12C): > 100 µM (inactive)
GI50 (ACHN): > 100 µM (inactive)
GI50 (786-0): > 100 µM (inactive)
GI50 (NCI/ADR-RES): > 100 µM (inactive)
GI50 (SK-MEL-28): > 100 µM (inactive)
GI50 (NCI-H23): > 100 µM (inactive)
GI50 (KM12): > 100 µM (inactive)
GI50 (OVCAR-3): > 100 µM (inactive)
GI50 (SF-295): > 100 µM (inactive)
GI50 (UO-31): > 100 µM (inactive)
GI50 (SK-MEL-2): > 100 µM (inactive)
GI50 (SK-MEL-5): > 100 µM (inactive)
GI50 (MCF7): > 100 µM (inactive)
GI50 (HOP-92): > 100 µM (inactive)
GI50 (PC-3): > 100 µM (inactive)
GI50 (NCI-H522): > 100 µM (inactive)

CCOC(=O)/C(=C\c1ccnc2ccccc12)P(=O)(OCC)OCC
GI50 (SNB-19): 3.65 µM (inactive)
GI50 (K562): 5.89 µM (inactive)
GI50 (DU-145): 2.71 µM (inactive)
GI50 (RXF 393): 2.62 µM (inactive)
GI50 (TK-10): 4.43 µM (inactive)
GI50 (COLO 205): 2.17 µM (inactive)
GI50 (SF-268): 2.53 µM (inactive)
GI50 (UACC-257): 3.73 µM (inactive)
GI50 (SW-620): 2.52 µM (inactive)
GI50 (CAKI-1): 2.25 µM (inactive)
GI50 (SNB-75): 3.49 µM (inactive)
GI50 (EKVX): 4.65 µM (inactive)
GI50 (U-251): 2.9 µM (inactive)
GI50 (HCT-116): 1.99 µM (inactive)
GI50 (A498): 1.77 µM (inactive)
GI50 (RPMI-8226): 2.67 µM (inactive)
GI50 (SR): 2.24 µM (inactive)
GI50 (MDA-N): 2.3 µM (inactive)
GI50 (MDA-MB-435): 2.75 µM (inactive)
GI50 (T47D): 3.18 µM (inactive)
GI50 (LOX IMVI): 1.57 µM (inactive)
GI50 (OVCAR-8): 1.81 µM (inactive)
GI50 (A549): 5.31 µM (inactive)
GI50 (UACC-62): 2.65 µM (inactive)
GI50 (NCI-H226): 10.5 µM (inactive)
GI50 (M14): 1.93 µM (inactive)
GI50 (HCC 2998): 12.9 µM (inactive)
GI50 (MOLT-4): 4.65 µM (inactive)
GI50 (NCI-H460): 3.48 µM (inactive)
GI50 (Hs-578T): 3.21 µM (inactive)
GI50 (CCRF-CEM): 0.366 µM (active)
GI50 (OVCAR-5): 2.25 µM (inactive)
GI50 (MDA-MB-231): 2.11 µM (inactive)
GI50 (BT-549): 2.16 µM (inactive)
GI50 (SK-OV-3): 4.99 µM (inactive)
GI50 (HOP-62): 1.93 µM (inactive)
GI50 (Malme-3M): 1.33 µM (inactive)
GI50 (OVCAR-4): 2.26 µM (inactive)
GI50 (IGROV-1): 1.6 µM (inactive)
GI50 (HCT-15): 1.47 µM
GI50 (HT-29): 2.16 µM (inactive)
GI50 (SN12C): 3.01 µM (inactive)
GI50 (ACHN): 2.08 µM (inactive)
GI50 (786-0): 1.94 µM (inactive)
GI50 (NCI/ADR-RES): 1.72 µM (inactive)
GI50 (SK-MEL-28): 1.57 µM (inactive)
GI50 (SF-539): 1.47 µM (inactive)
GI50 (NCI-H23): 1.9 µM (inactive)
GI50 (KM12): 4.01 µM (inactive)
GI50 (OVCAR-3): 1.64 µM (inactive)
GI50 (SF-295): 2.99 µM (inactive)
GI50 (SK-MEL-2): 2.06 µM (inactive)
GI50 (SK-MEL-5): 2.84 µM (inactive)
GI50 (MCF7): 1.4 µM (inactive)
GI50 (HOP-92): 2.49 µM (inactive)
GI50 (PC-3): 5.53 µM (inactive)
GI50 (NCI-H522): 1.33 µM (inactive)

— ChEMBL document CHEMBL1201862, “PubChem BioAssay data set” (2004)
